Laboratory results from paper PMC4669722, “Antitumour potential of BPT: a dual inhibitor of cdk4 and tubulin polymerization” (Cell Death & Disease, 2015).

What was measured:
[1] = test system: NCI-H460 tumours; experiment: NCI-H460 xenograft efficacy in SCID mice; type: in vivo; details: 100 mpk intraperitoneal, 9 days
Description: A group of 65 SCID (SCID strain-CBySmn.CB17-Prkdc^scid/J; The Jackson Laboratory; Stock no. 001803) female mice weighing 15–24 g and 6–8 weeks old were used. Human non-small-cell lung carcinoma, NCI-H460 (ATCC; cat. no. HTB-177) cells grown in RPMI-1640 medium supplemented with 10% FBS (Sigma-Aldrich). The cultured cells were injected subcutaneously into the dorsal side of SCID mice at a tune of 5.3 × 10^6 cells in 0.2 ml of suspension. When the tumour growth reached about 4–6 mm in diameter (about 6 days), the animals were randomly divided into eight groups, each containing 6 or 7 mice. The treatments were continued for 9 consecutive days intraperitoneally. Flavopiridol (2.5 mpk) was used as a positive control in this study. Tumour size was recorded at 2–5 day intervals. Tumour weight (mg) was estimated according to the formula for a prolate ellipsoid: (length (mm) × width (mm)^2) × 0.5) assuming specific gravity to be one and π to be 3. Tumour growth in compound treated animals is calculated as T/C (treated/control) × 100% and growth inhibition percent (% GI) was (100−% T/C).[48], [49], [50]

[2] = molecular target: GSK3β (Homo sapiens, UniProt P49841); experiment: Kinase profiling (Millipore), GSK3β; type: biochemical
Chain of GSK3β (P49841 whole entry): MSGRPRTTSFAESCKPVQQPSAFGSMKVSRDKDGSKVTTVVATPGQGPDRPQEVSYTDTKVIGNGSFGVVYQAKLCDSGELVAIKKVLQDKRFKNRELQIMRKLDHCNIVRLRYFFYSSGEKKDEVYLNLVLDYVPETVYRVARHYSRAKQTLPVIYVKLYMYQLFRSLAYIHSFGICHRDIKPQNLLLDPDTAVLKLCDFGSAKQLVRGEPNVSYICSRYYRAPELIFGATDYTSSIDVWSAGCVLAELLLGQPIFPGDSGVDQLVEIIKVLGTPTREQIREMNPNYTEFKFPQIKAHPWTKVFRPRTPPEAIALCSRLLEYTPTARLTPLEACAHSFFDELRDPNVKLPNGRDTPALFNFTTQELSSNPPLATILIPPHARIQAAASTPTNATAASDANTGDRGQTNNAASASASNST
Description: The in vitro kinase assays for testing against Cdk4-cyclin D1, Cdk2-cyclin A, Cdk1-cyclin B1 and Cdk9-cyclin T1 were performed in-house. The methodology and results have been reported previously.[20], [30], [31], [32], [45] The kinase profiling for 58 representative kinases was carrried out commercially at Millipore Bioscience Division, Livingston, UK.

[3] = test system: tubulin; experiment: Cell-free tubulin polymerization assay in vitro; type: biochemical; details: for Vmax of tubulin polymerization: control 19 mOD/min
Description: The purified tubulin was obtained commercially (Cytoskeleton Inc., Denver, CO, USA) and the polymerization assays were carried out according to the method described previously.[36] […] The resulting polymerization curves are representative of the three phases of microtubule polymerization, namely nucleation, growth and steady-state equilibrium. Paclitaxel and nocodazole were used in the assay as a known enhancer and inhibitor of tubulin polymerization, respectively. The ability of BPT to inhibit tubulin polymerization in vitro was determined according to the manufacturer's instructions. Briefly, tubulin protein (3 mg/ml) was polymerized in GTP buffer (80 mM PIPES, pH 6.9, 2 mM MgCl2, 0.5 mM EGTA, 10.2% glycerol and 1 mM GTP) in the presence of a range of BPT concentrations at 37 °C in a temperature-regulated Biotech spectrophotometer (Potton, Bedfordshire, UK). The absorbance (at 340 nm) kinetics of 61 cycles for each sample was studied and the readings were recorded at an interval of 1 min.

[4] = test system: tubulin in A549 cells; experiment: Tubulin polymerization/depolymerization in live cells (western blot); type: cell-based, human
Description: A549 (NSCLC) cells were seeded at a concentration of 10 000 cells per well in 1 ml complete growth medium in 24-well per 15 mm culture plates. The plates were incubated for 24 h for cell attachment and stabilization. In the first set of experiments, the cells were treated with 10 nM paclitaxel and different concentrations of BPT for 30 min (cells underwent simultaneous treatment of paclitaxel and BPT). In the second set of experiments, to study the effect of BPT on the stabilised form of tubulin, cells were pretreated with 10 nM paclitaxel for 30 min. The cell monolayer was washed two times with sterile PBS and fresh growth medium containing different concentrations of BPT were added. The plates were further incubated for 30 min, the cell monolayers were washed two times with sterile PBS at room temperature and then 100 μl tubulin extraction buffer (1 mM MgCl2, 2 mM EGTA, 0.5% NP40 and 20 mM Tris-HCl (pH 6.8)) supplemented with 2 mM phenylmethylsulfonyl fluoride, and a protease inhibitor cocktail (Sigma-Aldrich; cat. no. P8340) was added per well. After a short and vigorous vortex mixing, the cell lysates were incubated at room temperature for 5 min and then centrifuged at 16 000 r.p.m. for 10 min to separate the soluble and polymerized tubulin fractions. […]

[5] = MTD finding study; type: in vivo; details: mice
Description: Swiss-albino mice were used to determine the MTD for the compound. BPT was weighed and mixed with 0.5% (w/v) carboxymethylcellulose and triturated with Tween-20 (secundum artum) with gradual addition of water to make up the final concentration. Care was taken not to exceed >0.25% of Tween-20 in the final formulation of the BPT. In this study, six animals per group were administered with BPT at different doses for 5 days (Q1D × 5) via intraperitoneal route. Animals were monitored for weight loss, morbidity symptoms and mortality up to 2 weeks by the end of treatment. Significant weight loss was considered when mean animal weight dropped by ⩾10% and was considered highly significant when the drop was ⩾20%.

[6] = test system: A549 cells; experiment: Flow cytometric cell cycle analysis, A549; type: cell-based, human; details: 24 h
Description: The untreated (control) and treated (with test compounds) cells were harvested by trypsinization, washed once with PBS and then fixed in 70% chilled (−20 °C) ethanol for minimum 1 h. After the fixation step, cells were centrifuged for 5 min at 3000 × g at room temperature, and the pellet was suspended in PBS containing 50 μg/ml propidium iodide (Sigma-Aldrich, Dorset, UK; cat. no. P-4170) and 0.5 mg/ml DNase-free ribonuclease (Sigma-Aldrich; cat. no. R-5503). The cells were stained for 1 h in the dark at 4 °C. Cell cycle analysis was performed on the Beckman Coulter (Epics Altra) fluorescence-activated cell sorter (Beckman Coulter UK Ltd, Buckinghamshire, UK). To gate all the events that represent single cells, and not cell doublets or cell clumps, the following analyses were performed on the samples. Cytograms of propidium iodide fluorescence peak signal versus integrated fluorescence or the linear signal were plotted. All data points on the straight line were isolated in a single gate and the gated data was further used for plotting a histogram that represents a complete cell cycle. The total number of events was not allowed to exceed 200 events per s. Data acquisition was stopped after a minimum of 10 000 events had been collected.

For `O=C(c1ccccc1-c1ccccc1)N1CCc2c([nH]c3ccccc23)C1` [BPT, 2-(biphenyl-2-carbonyl)-2,3,4,9-tetrahydro-1H-pyrido[3,4-b]indole], the antitumour efficacy [1] was “high efficacy”, the IC50 [2] was > 10 µM and the “Vmax of tubulin polymerization” value ([3]; 0.5 μM) was 12.5 mOD/min. For the same compound, the “Vmax of tubulin polymerization” value ([3]; 1 μM) was 9.2 mOD/min, the “Vmax of tubulin polymerization” value ([3]; 2.5 μM) was 3 mOD/min and the “Vmax of tubulin polymerization” value ([3]; 5 μM) was 0.5 mOD/min. For the same compound, the “reduction in final polymer mass” value ([3]; 0.5-5 μM) was “up to 80%”, the “paclitaxel-mediated tubulin polymerization in live cells” value ([4]; A549, simultaneous 10 nM paclitaxel and BPT, 30 min) was “inhibited in a dose-dependent manner” and the “depolymerization of paclitaxel-stabilized tubulin in live cells” value ([4]; A549 pretreated with 10 nM paclitaxel 30 min, then BPT 30 min) was “enhanced the tubulin depolymerization”. For the same compound, the maximum-tolerated dose [5] was 1000 mg/kg, the “cells in G2/M” value ([6]; A549, IC50 concentration) was 82% and the “cells in G0/G1” value ([6]; A549, IC70 concentration) was 15%. For the same compound, the “cells in G2/M” value ([6]; A549, IC70 concentration) was 59% and the “cells in Sub G1 (apoptotic)” value ([6]; A549, IC70 concentration) was 13%.
